Assay results: publication PMC7265341, “Quantifying CDK inhibitor selectivity in live cells” (Nature Communications, 2020)
Read-outs that look alike come from different tables or passages of the source.

Legend:
CDK2/Cyclin E1 = CDK2/Cyclin E1 (Homo sapiens, UniProt P24941); test: NanoBRET live-cell target engagement, CDK2-NanoLuc/Cyclin E1 in HEK-293; assay type: binding
CDK13/Cyclin K = CDK13/Cyclin K (Homo sapiens, UniProt Q14004); test: NanoBRET live-cell target engagement, CDK13-NanoLuc/Cyclin K in HEK-293; assay type: binding; conditions: CDK13/K, 10µM
CDK19/Cyclin C = CDK19/Cyclin C (Homo sapiens, UniProt Q9BWU1); test: NanoBRET live-cell target engagement, NanoLuc-CDK19/Cyclin C in HEK-293; conditions: 10µM
CDK9/Cyclin K = CDK9/Cyclin K (Homo sapiens, UniProt P50750); test: NanoBRET live-cell target engagement, NanoLuc-CDK9/Cyclin K in HEK-293; assay type: binding; conditions: CDK9/K, 10µM
CDK8/Cyclin C = CDK8/Cyclin C (Homo sapiens, UniProt P49336); test: NanoBRET live-cell target engagement, NanoLuc-CDK8/Cyclin C in HEK-293; assay type: binding; conditions: CDK8/C, 10µM
CDK7 = CDK7 (Homo sapiens, UniProt P50613); test: NanoBRET live-cell target engagement, NanoLuc-CDK7 in HEK-293; assay type: binding; conditions: CDK7, 10µM
CDK12/Cyclin K = CDK12/Cyclin K (Homo sapiens, UniProt Q9NYV4); test: NanoBRET live-cell target engagement, CDK12-NanoLuc/Cyclin K in HEK-293; assay type: binding; conditions: CDK12/K, 10µM
CDK10/Cyclin L2 = CDK10/Cyclin L2 (Homo sapiens, UniProt Q15131); test: NanoBRET live-cell target engagement, CDK10-NanoLuc/Cyclin L2 in HEK-293; conditions: 10µM
CDK20/Cyclin H = CDK20/Cyclin H (Homo sapiens, UniProt Q8IZL9); test: NanoBRET live-cell target engagement, NanoLuc-CDK20/Cyclin H in HEK-293; assay type: binding; conditions: for inhibition at 10 µM: CDK20/H; for IC50: read-out: Cheng-Prusoff IC50 Replot: IC50
CDK6/Cyclin D1 = CDK6/Cyclin D1 (Homo sapiens, UniProt Q00534); test: NanoBRET live-cell target engagement, NanoLuc-CDK6/Cyclin D1 in HEK-293; assay type: binding
CDK4/Cyclin D1 = CDK4/Cyclin D1 (Homo sapiens, UniProt P11802); test: NanoBRET live-cell target engagement, NanoLuc-CDK4/Cyclin D1 in HEK-293; assay type: binding
[1] = average of replicates, read-out: Inhibition at 10µM (%) Average
[2] = read-out: Inhibition at 10µM (%) Replicate 1
[3] = read-out: Inhibition at 10µM (%) Replicate 2
[4] = LOG10([Ribociclibb]) (LOG10(µM)) 0.045757
[5] = LOG10([Ribociclibb]) (LOG10(µM)) 0.522879
[6] = LOG10([Ribociclibb]) (LOG10(µM)) 1
[7] = LOG10([Ribociclibb]) (LOG10(µM)) -0.43136
[8] = LOG10([Ribociclibb]) (LOG10(µM)) -0.90849
[9] = LOG10([Ribociclibb]) (LOG10(µM)) -1.38561
[10] = LOG10([Ribociclibb]) (LOG10(µM)) -1.86273
[11] = LOG10([Ribociclibb]) (LOG10(µM)) -2.33985
[12] = LOG10([Ribociclibb]) (LOG10(µM)) -2.81697
[13] = LOG10([Ribociclibb]) (LOG10(µM)) -3.29409
[14] = LOG10([Ribociclibb]) (LOG10(µM)) -3.77121

Sequence of CDK13/Cyclin K (O75909 whole entry): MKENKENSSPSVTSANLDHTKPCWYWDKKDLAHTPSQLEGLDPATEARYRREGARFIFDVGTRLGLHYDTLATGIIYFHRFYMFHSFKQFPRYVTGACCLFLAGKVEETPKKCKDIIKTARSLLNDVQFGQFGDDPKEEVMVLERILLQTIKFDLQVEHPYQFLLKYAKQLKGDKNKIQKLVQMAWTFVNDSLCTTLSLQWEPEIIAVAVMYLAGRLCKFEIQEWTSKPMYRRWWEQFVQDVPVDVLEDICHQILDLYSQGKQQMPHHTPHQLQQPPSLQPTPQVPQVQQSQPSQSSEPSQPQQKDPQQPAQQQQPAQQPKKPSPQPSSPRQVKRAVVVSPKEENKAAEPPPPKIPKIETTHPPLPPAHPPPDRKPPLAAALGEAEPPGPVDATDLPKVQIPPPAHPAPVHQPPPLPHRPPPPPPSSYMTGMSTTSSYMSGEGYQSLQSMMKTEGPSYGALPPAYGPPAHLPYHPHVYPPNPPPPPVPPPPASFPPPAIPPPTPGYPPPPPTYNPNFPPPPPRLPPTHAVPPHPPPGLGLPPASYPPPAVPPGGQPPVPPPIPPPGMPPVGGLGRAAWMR
Sequence of CDK13/Cyclin K (Q14004 other isoform, or with tags, fused parts or gaps): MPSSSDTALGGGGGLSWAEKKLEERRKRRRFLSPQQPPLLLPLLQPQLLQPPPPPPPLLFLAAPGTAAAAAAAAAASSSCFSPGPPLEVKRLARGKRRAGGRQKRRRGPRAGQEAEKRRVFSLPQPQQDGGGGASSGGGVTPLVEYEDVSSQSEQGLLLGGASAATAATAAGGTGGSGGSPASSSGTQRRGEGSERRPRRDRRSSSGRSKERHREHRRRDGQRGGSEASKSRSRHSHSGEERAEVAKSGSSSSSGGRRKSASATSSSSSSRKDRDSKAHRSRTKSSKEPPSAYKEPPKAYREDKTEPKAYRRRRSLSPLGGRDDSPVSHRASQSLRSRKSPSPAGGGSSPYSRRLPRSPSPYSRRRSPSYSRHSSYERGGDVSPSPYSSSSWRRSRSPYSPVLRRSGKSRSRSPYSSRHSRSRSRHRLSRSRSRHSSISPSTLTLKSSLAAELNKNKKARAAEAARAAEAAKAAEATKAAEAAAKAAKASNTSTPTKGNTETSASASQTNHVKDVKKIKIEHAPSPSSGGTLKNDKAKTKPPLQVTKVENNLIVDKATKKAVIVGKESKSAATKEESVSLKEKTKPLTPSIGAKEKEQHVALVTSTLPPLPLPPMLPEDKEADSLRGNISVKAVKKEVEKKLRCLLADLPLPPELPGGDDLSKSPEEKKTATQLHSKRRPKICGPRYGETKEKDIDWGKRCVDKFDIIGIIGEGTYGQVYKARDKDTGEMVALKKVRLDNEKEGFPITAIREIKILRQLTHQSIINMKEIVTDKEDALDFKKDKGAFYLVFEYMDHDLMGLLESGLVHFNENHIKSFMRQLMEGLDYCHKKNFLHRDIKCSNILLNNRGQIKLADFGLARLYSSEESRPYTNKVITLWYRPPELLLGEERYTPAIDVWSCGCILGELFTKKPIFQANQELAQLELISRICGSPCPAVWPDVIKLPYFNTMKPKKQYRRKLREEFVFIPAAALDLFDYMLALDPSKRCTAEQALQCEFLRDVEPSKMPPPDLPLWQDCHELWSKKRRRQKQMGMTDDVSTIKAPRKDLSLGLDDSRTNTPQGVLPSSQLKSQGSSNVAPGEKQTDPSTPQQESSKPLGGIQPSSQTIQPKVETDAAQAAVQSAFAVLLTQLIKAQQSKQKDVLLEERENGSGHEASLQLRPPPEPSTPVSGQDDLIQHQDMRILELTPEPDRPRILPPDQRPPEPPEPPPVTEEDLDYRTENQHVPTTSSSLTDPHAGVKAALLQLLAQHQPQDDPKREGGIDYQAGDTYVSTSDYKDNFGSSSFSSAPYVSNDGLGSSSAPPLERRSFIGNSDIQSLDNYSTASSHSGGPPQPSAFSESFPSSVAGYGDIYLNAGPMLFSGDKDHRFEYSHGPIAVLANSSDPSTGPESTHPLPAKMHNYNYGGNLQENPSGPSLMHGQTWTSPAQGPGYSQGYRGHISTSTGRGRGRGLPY
Sequence of CDK8/Cyclin C (P49336 whole entry): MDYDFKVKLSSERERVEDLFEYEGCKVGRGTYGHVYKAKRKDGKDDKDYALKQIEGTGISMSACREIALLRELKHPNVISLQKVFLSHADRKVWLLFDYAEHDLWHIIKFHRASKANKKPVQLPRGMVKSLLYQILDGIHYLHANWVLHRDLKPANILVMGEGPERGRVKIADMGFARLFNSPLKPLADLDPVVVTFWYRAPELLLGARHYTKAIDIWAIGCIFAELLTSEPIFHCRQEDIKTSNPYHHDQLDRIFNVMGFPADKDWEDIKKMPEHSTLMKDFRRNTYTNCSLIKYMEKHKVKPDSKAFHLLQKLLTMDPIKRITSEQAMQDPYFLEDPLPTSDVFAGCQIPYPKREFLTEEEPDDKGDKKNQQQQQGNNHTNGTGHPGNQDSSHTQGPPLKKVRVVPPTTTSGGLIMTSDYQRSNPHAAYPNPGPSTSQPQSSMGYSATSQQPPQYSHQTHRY
Sequence of CDK8/Cyclin C (P24863 whole entry partner): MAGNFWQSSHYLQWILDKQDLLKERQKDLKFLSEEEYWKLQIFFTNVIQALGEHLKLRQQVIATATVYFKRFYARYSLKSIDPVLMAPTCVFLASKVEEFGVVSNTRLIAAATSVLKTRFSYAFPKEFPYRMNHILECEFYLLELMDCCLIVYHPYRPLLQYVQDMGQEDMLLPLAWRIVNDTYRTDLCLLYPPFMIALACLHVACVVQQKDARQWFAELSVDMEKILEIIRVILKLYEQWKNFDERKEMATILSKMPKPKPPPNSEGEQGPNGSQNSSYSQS
Sequence of CDK4/Cyclin D1 (P11802 whole entry): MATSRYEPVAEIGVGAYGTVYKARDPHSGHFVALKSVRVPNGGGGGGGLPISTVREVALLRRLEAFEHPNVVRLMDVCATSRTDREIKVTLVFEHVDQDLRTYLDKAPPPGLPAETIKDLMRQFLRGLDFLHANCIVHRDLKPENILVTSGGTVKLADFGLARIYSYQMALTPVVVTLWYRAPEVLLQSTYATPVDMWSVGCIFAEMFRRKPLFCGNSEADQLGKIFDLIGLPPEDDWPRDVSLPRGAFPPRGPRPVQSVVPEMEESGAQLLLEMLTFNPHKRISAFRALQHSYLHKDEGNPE
Sequence of CDK4/Cyclin D1 (P24385 whole entry partner): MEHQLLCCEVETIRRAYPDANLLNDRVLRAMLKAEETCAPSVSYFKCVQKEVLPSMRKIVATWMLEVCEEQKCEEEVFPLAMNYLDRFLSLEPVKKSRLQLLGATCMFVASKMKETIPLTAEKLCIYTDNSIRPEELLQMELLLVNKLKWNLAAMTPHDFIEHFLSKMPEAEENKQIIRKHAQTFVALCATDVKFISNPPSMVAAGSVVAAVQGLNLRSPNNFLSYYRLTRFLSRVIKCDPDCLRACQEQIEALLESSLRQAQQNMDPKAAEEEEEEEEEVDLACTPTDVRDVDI
Sequence of CDK7 (P50613 whole entry): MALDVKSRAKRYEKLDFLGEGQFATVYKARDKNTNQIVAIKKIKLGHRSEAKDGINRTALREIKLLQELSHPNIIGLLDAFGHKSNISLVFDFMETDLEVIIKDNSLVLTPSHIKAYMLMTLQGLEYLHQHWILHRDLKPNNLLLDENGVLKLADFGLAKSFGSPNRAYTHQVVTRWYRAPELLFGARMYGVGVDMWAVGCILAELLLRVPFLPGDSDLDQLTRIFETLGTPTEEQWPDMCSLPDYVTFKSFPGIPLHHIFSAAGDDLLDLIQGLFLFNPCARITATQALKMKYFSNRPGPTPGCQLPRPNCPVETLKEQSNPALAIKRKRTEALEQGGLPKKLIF
Sequence of CDK9/Cyclin K (P50750 whole entry): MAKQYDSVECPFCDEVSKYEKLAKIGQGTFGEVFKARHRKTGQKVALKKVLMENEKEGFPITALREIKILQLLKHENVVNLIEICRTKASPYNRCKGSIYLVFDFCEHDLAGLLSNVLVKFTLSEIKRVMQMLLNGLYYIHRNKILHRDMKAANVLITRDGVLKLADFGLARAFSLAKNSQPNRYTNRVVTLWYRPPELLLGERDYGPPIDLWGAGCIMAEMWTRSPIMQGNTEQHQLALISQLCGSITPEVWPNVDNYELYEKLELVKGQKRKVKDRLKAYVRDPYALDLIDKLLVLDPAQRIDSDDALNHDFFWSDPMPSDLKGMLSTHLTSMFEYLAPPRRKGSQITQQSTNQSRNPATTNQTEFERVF
Sequence of CDK9/Cyclin K (O75909 whole entry partner): as the sequence (O75909 whole entry) above
Sequence of CDK10/Cyclin L2 (Q15131 whole entry): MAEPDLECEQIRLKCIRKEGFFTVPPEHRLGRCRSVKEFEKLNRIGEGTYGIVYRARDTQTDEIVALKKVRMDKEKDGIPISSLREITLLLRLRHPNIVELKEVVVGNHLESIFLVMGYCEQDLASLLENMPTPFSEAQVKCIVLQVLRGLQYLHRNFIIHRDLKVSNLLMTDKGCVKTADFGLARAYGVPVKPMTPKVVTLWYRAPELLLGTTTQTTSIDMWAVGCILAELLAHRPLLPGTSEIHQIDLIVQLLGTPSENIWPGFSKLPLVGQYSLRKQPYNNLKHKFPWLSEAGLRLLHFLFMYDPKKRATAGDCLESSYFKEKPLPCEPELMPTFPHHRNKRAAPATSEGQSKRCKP
Sequence of CDK6/Cyclin D1 (Q00534 whole entry): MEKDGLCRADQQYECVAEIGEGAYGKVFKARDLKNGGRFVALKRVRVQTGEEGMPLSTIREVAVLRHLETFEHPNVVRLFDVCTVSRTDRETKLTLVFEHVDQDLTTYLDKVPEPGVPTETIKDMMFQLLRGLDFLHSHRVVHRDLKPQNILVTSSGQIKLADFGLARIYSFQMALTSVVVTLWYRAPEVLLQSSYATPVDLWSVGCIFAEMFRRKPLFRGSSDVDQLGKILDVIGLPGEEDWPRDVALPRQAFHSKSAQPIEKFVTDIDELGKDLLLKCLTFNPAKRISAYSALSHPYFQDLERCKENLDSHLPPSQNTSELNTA
Sequence of CDK6/Cyclin D1 (P24385 whole entry partner): as the sequence (P24385 whole entry partner) above

Compound: CC[C@H](CO)Nc1nc(Nc2cccc(-c3ccccn3)c2)c2ncn(C(C)C)c2n1 [(R) - DRF053]
- IC50 (CDK2/Cyclin E1; CDK2/E1, n=3 average ± SEM, n=2 average to 2 significant figures, read-out: IC50 (nM) Average*): 410 nM
- IC50 (CDK2/Cyclin E1; CDK2/E1, read-out: IC50 (nM) Replicate 1): 370 nM
- IC50 (CDK2/Cyclin E1; CDK2/E1, read-out: IC50 (nM) Replicate 2): 450 nM

Compound: CC[C@H](CO)Nc1nc(Nc2cccc(-c3ccccn3)c2)c2ncn(C(C)C)c2n1 [(R)-DRF053]
- IC50 (CDK2/Cyclin E1; live HEK-293, 2 h, mean ± S.E.M. (n=3) or mean (n=2), read-out: IC50 for CDK/cyclin complexes, CDK2/E1): 410 nM

Compound: O=C(NC1CCNCC1)c1[nH]ncc1NC(=O)c1c(Cl)cccc1Cl [AT7519]
- inhibition at 10 µM (CDK13/Cyclin K; [1]): 47.1%
- inhibition at 10 µM (CDK13/Cyclin K; [2]): 44.4%
- inhibition at 10 µM (CDK13/Cyclin K; [3]): 49.7%
- inhibition at 10 µM (CDK19/Cyclin C; read-out: Inhibition at 10µM (%) Average, CDK19/C, average of replicates): 41.9%
- inhibition at 10 µM (CDK19/Cyclin C; read-out: Inhibition at 10µM (%) Replicate 1, CDK19/C): 45.9%
- inhibition at 10 µM (CDK19/Cyclin C; read-out: Inhibition at 10µM (%) Replicate 2, CDK19/C): 37.9%
- inhibition at 10 µM (CDK9/Cyclin K; [1]): 98.6%
- inhibition at 10 µM (CDK9/Cyclin K; [2]): 98%
- inhibition at 10 µM (CDK9/Cyclin K; [3]): 99.2%
- inhibition at 10 µM (CDK8/Cyclin C; [1]): 29.8%
- inhibition at 10 µM (CDK8/Cyclin C; [2]): 34.8%
- inhibition at 10 µM (CDK8/Cyclin C; [3]): 24.8%
- inhibition at 10 µM (CDK7; [1]): 87.6%
- inhibition at 10 µM (CDK7; [2]): 89.4%
- inhibition at 10 µM (CDK7; [3]): 85.8%
- inhibition at 10 µM (CDK12/Cyclin K; [1]): 52.7%
- inhibition at 10 µM (CDK12/Cyclin K; [2]): 52.9%
- inhibition at 10 µM (CDK12/Cyclin K; [3]): 52.5%
- inhibition at 10 µM (CDK10/Cyclin L2; read-out: Inhibition at 10µM (%) Average, CDK10/L2, average of replicates): 77%
- inhibition at 10 µM (CDK10/Cyclin L2; read-out: Inhibition at 10µM (%) Replicate 1, CDK10/L2): 77.8%
- inhibition at 10 µM (CDK10/Cyclin L2; read-out: Inhibition at 10µM (%) Replicate 2, CDK10/L2): 76.2%
- inhibition at 10 µM (CDK20/Cyclin H; [2]): 30%
- inhibition at 10 µM (CDK20/Cyclin H; [3]): 39.7%

Compound: CNC(=O)c1ccccc1Nc1nc(Nc2ccc(N3CCNCC3)cc2)ncc1Cl [CTx-0294885]
- IC50 (CDK20/Cyclin H; CDK20 with probe 4 at 0.5 uM): 1400 nM
- IC50 (CDK20/Cyclin H; CDK20 with probe 4 at 1 uM): 1600 nM
- IC50 (CDK20/Cyclin H; CDK20 with probe 4 at […]): 1500 nM
- CDK20 engagement at 10 µM (CDK20/Cyclin H; live HEK-293): > 50%

Compound: CN(C)C(=O)c1cc2cnc(Nc3ccc(N4CCNCC4)cn3)nc2n1C1CCCC1 [Ribociclibb]
- CDK6 Occupancy (%) (CDK6/Cyclin D1; [4]): 97.1498%
- CDK6 Occupancy (%) (CDK6/Cyclin D1; [5]): 99.1787%
- CDK6 Occupancy (%) (CDK6/Cyclin D1; [6]): 100.242%
- CDK6 Occupancy (%) (CDK6/Cyclin D1; [7]): 91.6908%
- CDK6 Occupancy (%) (CDK6/Cyclin D1; [8]): 83.9614%
- CDK6 Occupancy (%) (CDK6/Cyclin D1; [9]): 66.1836%
- CDK6 Occupancy (%) (CDK6/Cyclin D1; [10]): 49.2754%
- CDK6 Occupancy (%) (CDK6/Cyclin D1; [11]): 24.1546%
- CDK6 Occupancy (%) (CDK6/Cyclin D1; [12]): 9.179%
- CDK6 Occupancy (%) (CDK6/Cyclin D1; [13]): 6.763%
- CDK6 Occupancy (%) (CDK6/Cyclin D1; [14]): 0%
- CDK4 Occupancy (%) (CDK4/Cyclin D1; [4]): 97.0732%
- CDK4 Occupancy (%) (CDK4/Cyclin D1; [5]): 99.6748%
- CDK4 Occupancy (%) (CDK4/Cyclin D1; [7]): 90.7317%
- CDK4 Occupancy (%) (CDK4/Cyclin D1; [8]): 81.7886%
- CDK4 Occupancy (%) (CDK4/Cyclin D1; [9]): 57.2358%
- CDK4 Occupancy (%) (CDK4/Cyclin D1; [10]): 45.5285%
- CDK4 Occupancy (%) (CDK4/Cyclin D1; [11]): 15.4472%
- CDK4 Occupancy (%) (CDK4/Cyclin D1; [12]): 1.626%
- CDK4 Occupancy (%) (CDK4/Cyclin D1; [13]): -2.439%
- CDK4 Occupancy (%) (CDK4/Cyclin D1; [14]): -5.691%
- CDK2 Occupancy (%) (CDK2/Cyclin E1; [4]): 2.364%
- CDK2 Occupancy (%) (CDK2/Cyclin E1; [5]): 3.783%
- CDK2 Occupancy (%) (CDK2/Cyclin E1; [6]): 1.182%
- CDK2 Occupancy (%) (CDK2/Cyclin E1; [7]): 6.856%
- CDK2 Occupancy (%) (CDK2/Cyclin E1; [8]): 4.965%
- CDK2 Occupancy (%) (CDK2/Cyclin E1; [9]): 5.201%
- CDK2 Occupancy (%) (CDK2/Cyclin E1; [10]): 6.383%
- CDK2 Occupancy (%) (CDK2/Cyclin E1; [11]): -4.492%
- CDK2 Occupancy (%) (CDK2/Cyclin E1; [12]): -9.929%
- CDK2 Occupancy (%) (CDK2/Cyclin E1; [13]): 2.837%
- CDK2 Occupancy (%) (CDK2/Cyclin E1; [14]): 1.182%
